From ChEMBL document CHEMBL3351292, “Structure-Based Design and Synthesis of Potent Cyclic Peptides Inhibiting the YAP-TEAD Protein-Protein Interaction” (ACS Med Chem Lett, 2014)
Where a SMILES comes first, the peptide text is derived from it. Bridges are numbered along the chain shown (N, C = ends). [ ]: non-standard residue; d: D form. hCys = N[C@@H](CCS)C(=O)O; Nle = CCCC[C@H](N)C(=O)O

Assays:
[1] = biological target: T1, Transcriptional coactivator YAP1/Transcriptional enhancer factor TEF-1 (Homo sapiens, UniProt P28347); assay: Inhibition of YAP/ GST-TEAD1 (unknown origin) interaction by surface plasmon resonance assay; assay type: protein assay
[2] = biological target: T1, Transcriptional coactivator YAP1/Transcriptional enhancer factor TEF-1; assay: Inhibition of YAP/ GST-TEAD1 interaction in human Bel-7404 cells […]; assay type: cell-based, Bel7404
[3] = biological target: Transcriptional coactivator YAP1/Transcriptional enhancer factor TEF-1 (Homo sapiens) (UniProt P46937+P28347); assay: Inhibition of YAP/ GST-TEAD1 (unknown origin) interaction at 50 uM by surface plasmon resonance assay; assay type: protein assay
Chain of Transcriptional coactivator YAP1/Transcriptional enhancer factor TEF-1 (Homo sapiens) (P28347 whole entry, looked up): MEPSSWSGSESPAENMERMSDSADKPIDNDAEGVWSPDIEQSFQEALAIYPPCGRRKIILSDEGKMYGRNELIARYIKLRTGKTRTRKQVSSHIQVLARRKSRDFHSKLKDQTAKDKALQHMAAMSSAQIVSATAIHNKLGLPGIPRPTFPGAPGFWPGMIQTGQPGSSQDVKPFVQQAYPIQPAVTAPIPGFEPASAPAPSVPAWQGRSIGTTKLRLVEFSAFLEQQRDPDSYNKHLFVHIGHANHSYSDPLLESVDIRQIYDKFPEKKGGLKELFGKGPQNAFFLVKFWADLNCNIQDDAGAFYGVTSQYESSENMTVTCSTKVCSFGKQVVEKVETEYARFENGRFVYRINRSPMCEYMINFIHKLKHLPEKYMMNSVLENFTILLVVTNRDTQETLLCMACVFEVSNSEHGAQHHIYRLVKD
Chain of Transcriptional coactivator YAP1/Transcriptional enhancer factor TEF-1 (Homo sapiens) (P46937 whole entry, looked up): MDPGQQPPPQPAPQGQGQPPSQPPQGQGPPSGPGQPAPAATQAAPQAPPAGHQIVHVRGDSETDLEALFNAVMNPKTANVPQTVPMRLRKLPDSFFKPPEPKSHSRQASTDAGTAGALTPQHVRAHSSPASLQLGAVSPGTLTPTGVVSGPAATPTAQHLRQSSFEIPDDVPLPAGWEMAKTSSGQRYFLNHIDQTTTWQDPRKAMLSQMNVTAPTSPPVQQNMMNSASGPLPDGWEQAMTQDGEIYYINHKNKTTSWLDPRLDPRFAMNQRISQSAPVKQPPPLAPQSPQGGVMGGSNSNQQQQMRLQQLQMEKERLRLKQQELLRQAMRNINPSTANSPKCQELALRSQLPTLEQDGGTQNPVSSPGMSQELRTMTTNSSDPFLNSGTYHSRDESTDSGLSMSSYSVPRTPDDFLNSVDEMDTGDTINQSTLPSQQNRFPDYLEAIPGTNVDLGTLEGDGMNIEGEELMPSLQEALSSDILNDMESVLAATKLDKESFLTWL

T1 sequence (P46937 whole entry): as the sequence (P46937 whole entry, looked up) above
T1 sequence (P28347 whole entry): as the sequence (P28347 whole entry, looked up) above

Row | SMILES | IC50 [1] | Kd [2] | inhibition [3]
1 | CSCC[C@H](NC(=O)[C@@H]1CCCN1C(=O)[C@@H](NC(C)=O)C(C)C)C(=O)N[C@H]1CCSSC[C@@H](C(=O)N[C@@H](CCCCN)C(=O)N2CCC[C@H]2C(=O)N2CCC[C@H]2C(=O)N[C@@H](CCC(=O)O)C(N)=O)NC(=O)[C@H](Cc2ccccc2)NC(=O)[C@H](CO)NC(=O)[C@H](CC(=O)O)NC(=O)[C@@H]2CCCN2C(=O)[C@H](CC(C)C)NC(=O)[C@H](CCCCN)NC(=O)[C@H](CCCNC(=N)N)NC(=O)[C@H](CC(C)C)NC1=O | 6900 nM |  | 
2 | CSCC[C@H](NC(=O)[C@@H]1CCCN1C(=O)[C@@H](NC(C)=O)C(C)C)C(=O)N[C@H]1CCSSC[C@@H](C(=O)N[C@@H](CCCCN)C(=O)N2CCC[C@H]2C(=O)N2CCC[C@H]2C(=O)N[C@@H](CCC(=O)O)C(N)=O)NC(=O)[C@H](Cc2ccccc2)NC(=O)[C@H](CO)NC(=O)[C@H](C)NC(=O)[C@@H]2CCCN2C(=O)[C@H](CC(C)C)NC(=O)[C@H](CCCCN)NC(=O)[C@H](CCCNC(=N)N)NC(=O)[C@H](CC(C)C)NC1=O | 1500 nM |  | 
3 | CCCC[C@@H]1NC(=O)[C@H](CCCCN)NC(=O)[C@H](CCCNC(=N)N)NC(=O)[C@H](CC(C)C)NC(=O)[C@@H](NC(=O)[C@H](CCSC)NC(=O)[C@@H]2CCCN2C(=O)[C@@H](NC(C)=O)C(C)C)CCSSC[C@@H](C(=O)N[C@@H](CCCCN)C(=O)N2CCC[C@H]2C(=O)N2CCC[C@H]2C(=O)N[C@@H](CCC(=O)O)C(N)=O)NC(=O)[C@H](Cc2ccccc2)NC(=O)[C@H](CO)NC(=O)[C@H](C)NC(=O)[C@@H]2CCCN2C1=O | 150 nM | 39 nM | 
4 | CCCCC[C@@H]1NC(=O)[C@H](CCCCN)NC(=O)[C@H](CCCNC(=N)N)NC(=O)[C@H](CC(C)C)NC(=O)[C@@H](NC(=O)[C@H](CCSC)NC(=O)[C@@H]2CCCN2C(=O)[C@@H](NC(C)=O)C(C)C)CCSSC[C@@H](C(=O)N[C@@H](CCCCN)C(=O)N2CCC[C@H]2C(=O)N2CCC[C@H]2C(=O)N[C@@H](CCC(=O)O)C(N)=O)NC(=O)[C@H](Cc2ccccc2)NC(=O)[C@H](CO)NC(=O)[C@H](C)NC(=O)[C@@H]2CCCN2C1=O | 42 nM | 18 nM | 
5 | CCCCCC[C@@H]1NC(=O)[C@H](CCCCN)NC(=O)[C@H](CCCNC(=N)N)NC(=O)[C@H](CC(C)C)NC(=O)[C@@H](NC(=O)[C@H](CCSC)NC(=O)[C@@H]2CCCN2C(=O)[C@@H](NC(C)=O)C(C)C)CCSSC[C@@H](C(=O)N[C@@H](CCCCN)C(=O)N2CCC[C@H]2C(=O)N2CCC[C@H]2C(=O)N[C@@H](CCC(=O)O)C(N)=O)NC(=O)[C@H](Cc2ccccc2)NC(=O)[C@H](CO)NC(=O)[C@H](C)NC(=O)[C@@H]2CCCN2C1=O | 370 nM |  | 
6 | CSCC[C@H](NC(=O)[C@@H]1CCCN1C(=O)[C@@H](NC(C)=O)C(C)C)C(=O)N[C@H]1CCSSC[C@@H](C(=O)N[C@@H](CCCCN)C(=O)N2CCC[C@H]2C(=O)N2CCC[C@H]2C(=O)N[C@@H](CCC(=O)O)C(N)=O)NC(=O)[C@H](Cc2ccccc2)NC(=O)[C@H](CO)NC(=O)[C@H](C)NC(=O)[C@@H]2CCCN2C(=O)[C@H](CCCC(C)C)NC(=O)[C@H](CCCCN)NC(=O)[C@H](CCCNC(=N)N)NC(=O)[C@H](CC(C)C)NC1=O | 310 nM |  | 
7 | CCCC[C@H](NC(=O)[C@@H]1CCCN1C(=O)[C@@H](NC(C)=O)C(C)C)C(=O)N[C@H]1CCSSC[C@@H](C(=O)N[C@@H](CCCCN)C(=O)N2CCC[C@H]2C(=O)N2CCC[C@H]2C(=O)N[C@@H](CCC(=O)O)C(N)=O)NC(=O)[C@H](Cc2ccccc2)NC(=O)[C@H](CO)NC(=O)[C@H](C)NC(=O)[C@@H]2CCCN2C(=O)[C@H](CCCC)NC(=O)[C@H](CCCCN)NC(=O)[C@H](CCCNC(=N)N)NC(=O)[C@H](CC(C)C)NC1=O | 340 nM |  | 
8 | CCCC[C@@H]1NC(=O)[C@H](CCCCN)NC(=O)[C@H](CCCNC(=N)N)NC(=O)[C@H](CC(C)C)NC(=O)[C@@H](NC(=O)[C@H](Cc2ccccc2)NC(=O)[C@@H]2CCCN2C(=O)[C@@H](NC(C)=O)C(C)C)CCSSC[C@@H](C(=O)N[C@@H](CCCCN)C(=O)N2CCC[C@H]2C(=O)N2CCC[C@H]2C(=O)N[C@@H](CCC(=O)O)C(N)=O)NC(=O)[C@H](Cc2ccccc2)NC(=O)[C@H](CO)NC(=O)[C@H](C)NC(=O)[C@@H]2CCCN2C1=O | 350 nM |  | 
9 | CCCC[C@@H]1NC(=O)[C@H](CCCCN)NC(=O)[C@H](CCCNC(=N)N)NC(=O)[C@H](CC(C)C)NC(=O)[C@@H](NC(=O)[C@H](Cc2ccccc2Cl)NC(=O)[C@@H]2CCCN2C(=O)[C@@H](NC(C)=O)C(C)C)CCSSC[C@@H](C(=O)N[C@@H](CCCCN)C(=O)N2CCC[C@H]2C(=O)N2CCC[C@H]2C(=O)N[C@@H](CCC(=O)O)C(N)=O)NC(=O)[C@H](Cc2ccccc2)NC(=O)[C@H](CO)NC(=O)[C@H](C)NC(=O)[C@@H]2CCCN2C1=O | 380 nM |  | 
10 | CCCC[C@@H]1NC(=O)[C@H](CCCCN)NC(=O)[C@H](CCCNC(=N)N)NC(=O)[C@H](CC(C)C)NC(=O)[C@@H](NC(=O)[C@H](Cc2cccc(Cl)c2)NC(=O)[C@@H]2CCCN2C(=O)[C@@H](NC(C)=O)C(C)C)CCSSC[C@@H](C(=O)N[C@@H](CCCCN)C(=O)N2CCC[C@H]2C(=O)N2CCC[C@H]2C(=O)N[C@@H](CCC(=O)O)C(N)=O)NC(=O)[C@H](Cc2ccccc2)NC(=O)[C@H](CO)NC(=O)[C@H](C)NC(=O)[C@@H]2CCCN2C1=O | 25 nM | 15 nM | 
11 | CCCC[C@@H]1NC(=O)[C@H](CCCCN)NC(=O)[C@H](CCCNC(=N)N)NC(=O)[C@H](CC(C)C)NC(=O)[C@@H](NC(=O)[C@H](Cc2ccc(Cl)cc2)NC(=O)[C@@H]2CCCN2C(=O)[C@@H](NC(C)=O)C(C)C)CCSSC[C@@H](C(=O)N[C@@H](CCCCN)C(=O)N2CCC[C@H]2C(=O)N2CCC[C@H]2C(=O)N[C@@H](CCC(=O)O)C(N)=O)NC(=O)[C@H](Cc2ccccc2)NC(=O)[C@H](CO)NC(=O)[C@H](C)NC(=O)[C@@H]2CCCN2C1=O | 530 nM |  | 
12 | CCCC[C@@H]1NC(=O)[C@H](CCCCN)NC(=O)[C@H](CCCNC(=N)N)NC(=O)[C@H](CC(C)C)NC(=O)[C@@H](NC(=O)[C@H](CCSC)NC(=O)[C@@H]2CCCN2C(=O)[C@@H](NC(C)=O)C(C)C)CCSSC[C@@H](C(=O)N[C@@H](CCCCN)C(=O)N2CCC[C@H]2C(=O)N2CCC[C@H]2C(=O)N[C@@H](CCC(=O)O)C(N)=O)NC(=O)[C@H](Cc2ccc(F)cc2)NC(=O)[C@H](CO)NC(=O)[C@H](C)NC(=O)[C@@H]2CCCN2C1=O | 75 nM |  | 
13 | CSCC[C@H](NC(=O)[C@@H]1CCCN1C(=O)[C@@H](NC(=O)[C@@H](NC(=O)[C@H](CCC(N)=O)NC(=O)[C@@H]1CCCN1C(C)=O)[C@@H](C)O)C(C)C)C(=O)N[C@@H](CCCNC(=N)N)C(=O)N[C@@H](CC(C)C)C(=O)N[C@@H](CCCNC(=N)N)C(=O)N[C@@H](CCCCN)C(=O)N[C@@H](CC(C)C)C(=O)N1CCC[C@H]1C(=O)N[C@@H](C)C(=O)N[C@@H](CO)C(=O)N[C@@H](Cc1ccccc1)C(=O)N[C@@H](Cc1ccccc1)C(=O)N[C@@H](CCCCN)C(=O)N1CCC[C@H]1C(=O)N1CCC[C@H]1C(=O)N[C@@H](CCC(=O)O)C(N)=O (Ac-PQTVPMRLRKLPASFFKPPE-NH2) | 25000 nM |  | 83%
14 | CSCC[C@H](NC(=O)[C@@H]1CCCN1C(=O)[C@@H](NC(=O)[C@@H](NC(=O)[C@H](CCC(N)=O)NC(=O)[C@@H]1CCCN1C(C)=O)[C@@H](C)O)C(C)C)C(=O)N[C@@H](CCCNC(=N)N)C(=O)N[C@@H](CC(C)C)C(=O)N[C@@H](CCCNC(=N)N)C(=O)N[C@@H](CCCCN)C(=O)N[C@@H](CC(C)C)C(=O)N1CCC[C@H]1C(=O)N[C@@H](CC(=O)O)C(=O)N[C@@H](CO)C(=O)N[C@@H](Cc1ccccc1)C(=O)N[C@@H](Cc1ccccc1)C(=O)N[C@@H](CCCCN)C(=O)N1CCC[C@H]1C(=O)N1CCC[C@H]1C(=O)N[C@@H](C)C(N)=O (Ac-PQTVPMRLRKLPDSFFKPPA-NH2) | 43000 nM |  | 71%
15 | CSCC[C@H](NC(=O)[C@@H]1CCCN1C(=O)[C@@H](NC(C)=O)C(C)C)C(=O)N[C@H]1CSSC[C@@H](C(=O)N[C@@H](CCCCN)C(=O)N2CCC[C@H]2C(=O)N2CCC[C@H]2C(=O)N[C@@H](CCC(=O)O)C(N)=O)NC(=O)[C@H](Cc2ccccc2)NC(=O)[C@H](CO)NC(=O)[C@H](CC(=O)O)NC(=O)[C@@H]2CCCN2C(=O)[C@H](CC(C)C)NC(=O)[C@H](CCCCN)NC(=O)[C@H](CCCNC(=N)N)NC(=O)[C@H](CC(C)C)NC1=O (Ac-VPMCLRKLPDSFCKPPE-NH2; disulfide 4-13) | > 100000 nM |  | 
16 | CSCC[C@H](NC(=O)[C@@H]1CCCN1C(=O)[C@@H](NC(C)=O)C(C)C)C(=O)N[C@H]1CSSCC[C@@H](C(=O)N[C@@H](CCCCN)C(=O)N2CCC[C@H]2C(=O)N2CCC[C@H]2C(=O)N[C@@H](CCC(=O)O)C(N)=O)NC(=O)[C@H](Cc2ccccc2)NC(=O)[C@H](CO)NC(=O)[C@H](CC(=O)O)NC(=O)[C@@H]2CCCN2C(=O)[C@H](CC(C)C)NC(=O)[C@H](CCCCN)NC(=O)[C@H](CCCNC(=N)N)NC(=O)[C@H](CC(C)C)NC1=O (Ac-VPMCLRKLPDSF[hCys]KPPE-NH2; disulfide 4-13) | 85000 nM |  | 
17 | CSCC[C@H](NC(=O)[C@@H]1CCCN1C(=O)[C@@H](NC(C)=O)C(C)C)C(=O)N[C@H]1CCSSCC[C@@H](C(=O)N[C@@H](CCCCN)C(=O)N2CCC[C@H]2C(=O)N2CCC[C@H]2C(=O)N[C@@H](CCC(=O)O)C(N)=O)NC(=O)[C@H](Cc2ccccc2)NC(=O)[C@H](CO)NC(=O)[C@H](CC(=O)O)NC(=O)[C@@H]2CCCN2C(=O)[C@H](CC(C)C)NC(=O)[C@H](CCCCN)NC(=O)[C@H](CCCNC(=N)N)NC(=O)[C@H](CC(C)C)NC1=O (Ac-VPM[hCys]LRKLPDSF[hCys]KPPE-NH2; disulfide 4-13) | > 100000 nM |  | 
18 | CCCC[C@@H]1NC(=O)[C@H](CCCCN)NC(=O)[C@H](CCCNC(=N)N)NC(=O)[C@H](CC(C)C)NC(=O)[C@@H](NC(=O)[C@H](CCSC)NC(=O)[C@@H]2CCCN2C(=O)[C@@H](NC(C)=O)C(C)C)CCSSC[C@@H](C(=O)N[C@@H](CCCCN)C(=O)N2CCC[C@H]2C(=O)N2CCC[C@H]2C(=O)N[C@@H](CCC(=O)O)C(N)=O)NC(=O)[C@H](Cc2ccccc2)NC(=O)[C@H](CO)NC(=O)[C@H](CC(=O)O)NC(=O)[C@@H]2CCCN2C1=O (Ac-VPM[hCys]LRK[Nle]PDSFCKPPE-NH2; disulfide 4-13) | 1700 nM | 211 nM | 
